Among the test systems are SK-MEL-5 melanoma; HOP-62 NSCLC; U251 CNS; OVCAR-8 ovarian; HCT-116 colon; NCI-H460 lung; SN12C renal; ACHN renal; A498 renal.
Common to all, as to assay: DTP human tumour cell line panel, 48 h

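A five-concentration, 48-hour dose response in 96-well plates underlies each endpoint, interpolated linearly between surrounding concentrations. Abbreviation: GI50, concentration required for 50% inhibition of growth. The concentration for full growth arrest is given as TGI.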 Where only a bound is given, the exact number is not on record here.

The TGI is the concentration at which net growth stops. A low value points to more potent growth arrest. Regarding `Brc1cccc(C2SCc3nc4ccccc4n32)c1` (stereo not given), the TGI in the assay on SK-MEL-5 melanoma was 18.9 µM; with HOP-62 NSCLC it was 40.7 µM; with U251 CNS, 36.3 µM; with OVCAR-8 ovarian, 60.7 µM; in the assay with HCT-116 colon, 29.4 µM; in the assay on NCI-H460 lung, 99.1 µM. Besides, the TGI in the assay with SN12C renal was 33.2 µM; in the assay with ACHN renal, greater than 100 µM.
On to `CCOC(=O)C(C)(c1cn(C)c2ccccc12)c1cn(C)c2ccccc12`, for which the total growth inhibition concentration (TGI) in the assay on SK-MEL-5 melanoma, with HOP-62 NSCLC, with U251 CNS, in the assay with OVCAR-8 ovarian, in the assay on HCT-116 colon and in the assay on NCI-H460 lung was greater than 100 µM each time. Further, the TGI in the assay on A498 renal and in the assay with ACHN renal was greater than 100 µM throughout.
On to `COc1ccc(OC)c(NC(=O)CCC/C(CC(=O)c2ccc(O)c(OC)c2)=N\NC(=O)C[N+](C)(C)C)c1`, for which the concentration for total growth inhibition (TGI) in the assay on SK-MEL-5 melanoma, with HOP-62 NSCLC, in the assay with U251 CNS, with OVCAR-8 ovarian, in the assay with NCI-H460 lung and with A498 renal was greater than 100 µM in each case. Moreover, the TGI in the assay with SN12C renal and with ACHN renal was greater than 100 µM each time.
Take `COc1cc2c(cc1OC(=O)CC(C)O)C1C(OC2=O)C(OC(C)=O)C=C2CCN(C)[C@H]21` (stereo not given in full): the TGI with SK-MEL-5 melanoma is greater than 100 µM; in the assay with HOP-62 NSCLC it was 55.7 µM; in the assay with U251 CNS it was 61.4 µM; in the assay on OVCAR-8 ovarian, greater than 100 µM; with HCT-116 colon, greater than 100 µM; in the assay on NCI-H460 lung it was greater than 100 µM. Besides, the values for the TGI in the assay on A498 renal, with SN12C renal and in the assay with ACHN renal were 45.5 µM, greater than 100 µM and greater than 100 µM, respectively.
Consider `CCOC(=O)C1=C(NC)OC/C1=N\NC(=O)c1ccccc1O`, for which the TGI was greater than 100 µM with SK-MEL-5 melanoma; greater than 100 µM with HOP-62 NSCLC; greater than 100 µM in the assay on U251 CNS; greater than 100 µM in the assay with OVCAR-8 ovarian; 58.3 µM in the assay on HCT-116 colon; greater than 100 µM with NCI-H460 lung. The TGI in the assay with A498 renal and in the assay with SN12C renal was greater than 100 µM throughout.
Turning to `CCOC(=O)c1oc2ccc(OC)c3c2c1CCC3`, the TGI with SK-MEL-5 melanoma, in the assay with HOP-62 NSCLC, in the assay on U251 CNS, with OVCAR-8 ovarian, in the assay with NCI-H460 lung and in the assay on A498 renal was greater than 100 µM each time. Further, the TGI in the assay with SN12C renal and in the assay on ACHN renal was greater than 100 µM each time.
Consider `CN(C)c1nc(=Nc2ccc3ccccc3c2)ss1`, for which the TGI with SK-MEL-5 melanoma is 29.9 µM; in the assay on HOP-62 NSCLC, greater than 100 µM; in the assay on U251 CNS, greater than 100 µM; with OVCAR-8 ovarian, greater than 100 µM; in the assay with HCT-116 colon, greater than 100 µM; in the assay with NCI-H460 lung it was greater than 100 µM. For the same molecule, the TGI in the assay on A498 renal, in the assay with SN12C renal and in the assay with ACHN renal was greater than 100 µM each time.
A word on the GI50: it is the concentration that inhibits growth by half. Turning to `COC1CC(OS(=O)(=O)c2ccc(C)cc2)C(OC(=O)c2ccccc2)C(C)O1` (stereo not given), the GI50 in the assay on SK-MEL-5 melanoma, in the assay on HOP-62 NSCLC, with OVCAR-8 ovarian, with NCI-H460 lung, with A498 renal and with SN12C renal was greater than 100 µM each time. In addition, in the assay with ACHN renal, the GI50 was greater than 100 µM. The TGI is greater than 100 µM in the assay with SK-MEL-5 melanoma; greater than 100 µM in the assay on HOP-62 NSCLC; greater than 10 µM in the assay with U251 CNS; greater than 100 µM in the assay with OVCAR-8 ovarian; greater than 10 µM with HCT-116 colon; greater than 100 µM in the assay with NCI-H460 lung. The TGI with A498 renal, in the assay with SN12C renal and with ACHN renal was greater than 100 µM in each case.
On to `CCOC(=O)c1nc2ccc([N+](=O)[O-])cc2c2c1CCO2`, for which the TGI with SK-MEL-5 melanoma, in the assay with HOP-62 NSCLC, in the assay on U251 CNS, with OVCAR-8 ovarian, with HCT-116 colon and with NCI-H460 lung was greater than 100 µM each time. For the same molecule, the TGI with A498 renal, in the assay with SN12C renal and with ACHN renal was greater than 100 µM throughout.
Consider `CC(=O)OC1CCn2nnc(CO[Si](C)(C)C(C)(C)C)c21` (stereo not given), for which the TGI with SK-MEL-5 melanoma, with U251 CNS, in the assay on OVCAR-8 ovarian, in the assay on HCT-116 colon, with NCI-H460 lung and with SN12C renal was greater than 100 µM throughout. This molecule returned a TGI with ACHN renal greater than 100 µM.
Take `COc1cc(C(=O)C/C(CCC(=O)Nc2ccccc2[N+](=O)[O-])=N\NC(=O)CC#N)ccc1O`: the TGI in the assay on SK-MEL-5 melanoma, in the assay with HOP-62 NSCLC, in the assay with OVCAR-8 ovarian, in the assay with NCI-H460 lung, with A498 renal and in the assay with SN12C renal was greater than 100 µM each time. The molecule further returned a TGI in the assay on ACHN renal greater than 100 µM.
For `Nn1c(-c2ccccc2Cl)nc2ccccc2c1=O`, the TGI in the assay with SK-MEL-5 melanoma, in the assay on HOP-62 NSCLC, in the assay with U251 CNS, in the assay with OVCAR-8 ovarian, in the assay on HCT-116 colon and in the assay on NCI-H460 lung was greater than 100 µM in each case. Besides, the concentration for total growth inhibition (TGI) in the assay on A498 renal, in the assay on SN12C renal and in the assay with ACHN renal was greater than 100 µM each time.
On to `CCCCNCC(=O)O[C@]1(CC)C(=O)OCc2c1cc1n(c2=O)Cc2cc3ccccc3nc2-1`, for which the TGI in the assay on SK-MEL-5 melanoma is 1.27 µM; in the assay on U251 CNS it was 4.49 µM; with HCT-116 colon, 4.8 µM; with NCI-H460 lung, 1.68 µM; in the assay with A498 renal, 4.64 µM; in the assay on SN12C renal, greater than 16.2 µM. Besides, the TGI in the assay on ACHN renal was 3.77 µM.
For `Cc1c(C#N)c(=O)[nH]c(=O)n1CCN1CCN(C(=O)NCCCCCCNC(=O)N2CCN(CCn3c(C)c(C#N)c(=O)[nH]c3=O)CC2)CC1`, the TGI in the assay with SK-MEL-5 melanoma, in the assay with HOP-62 NSCLC, in the assay with U251 CNS, with OVCAR-8 ovarian, in the assay on HCT-116 colon and in the assay with NCI-H460 lung was greater than 100 µM throughout. In addition, the TGI in the assay with A498 renal, in the assay on SN12C renal and in the assay on ACHN renal was greater than 100 µM in each case.
For `COc1ccc(C2=C(Cl)c3cc(OC)c(OC)cc3C2Cl)cc1OC` (stereo not given), the TGI was found to be 28.5 µM in the assay with SK-MEL-5 melanoma; 36.6 µM in the assay with HOP-62 NSCLC; 29 µM in the assay on U251 CNS; 39 µM with OVCAR-8 ovarian; 30.3 µM with HCT-116 colon; 34.8 µM with NCI-H460 lung. Also, the TGI in the assay on SN12C renal was 38.4 µM; in the assay with ACHN renal it was 38.3 µM.

The values are drawn from PubChem BioAssay (NCI).
